Here are results for 64 compounds from a melting point compilation (Tetko et al.; mined from patent text by program, amines drawn as free bases though some values may be those of a salt).

The structures appear in SMILES notation. A value given as a limit tells only on which side of the number the result lay.

The compound `COc1ccc(-c2cc(C(Nn3cnnc3)c3ccccc3OS(N)(=O)=O)ccc2C#N)cc1` (centres undefined) came in with a melting point of 184 to 186 °C. Under `N#CC(C#N)CC(=O)c1ccc(Cl)s1` stands 155 to 158 °C. The compound `O=C(O)Cc1ccc(-c2nc3ccccc3o2)cc1F` showed a melting point of 213 to 216 °C. Under `Cc1ccnc(N)c1C` stands 79.5 to 81 °C. Under `Cc1cc([N+](=O)[O-])cc2c1OCC2` stands 80 to 81 °C; under `C#CC1(O)C=CC2C3CCC4=CC(=O)CCC4C3C(Cl)CC21CC` (centres undefined), 202 °C; under `CCCCCCCCCCCCN1C(C)(C)CC(O)CC1(C)C`, 41 to 42 °C. Under `COc1ccc(CNc2n[nH]cc2C(N)=O)cc1OC1CCCC1` stands 128 to 130 °C. `Cc1cc(C)cc(C(O)(CCc2cncn2Cc2ccccc2)c2cc(C)cc(C)c2)c1`: the melting point is 120 to 124 °C. The figure for `Cc1nnc(-c2ccc3occ(-c4ccc(SCc5ccccc5C#N)cc4)c3c2)o1` is 141 to 142 °C. Under `Cc1cccc2c1nc(-c1ccncc1)n2Cc1c(F)cccc1F` stands 171 to 172 °C; under `CCCC12CCC3C4CCC(=O)C=C4CCC3C1CCC2O` (centres undefined), 126 to 127 °C; under `Cc1c2c(c(C)c3c1NCC3)OC(C)(C)C2`, 105 to 107 °C. Under `CCOC(=O)Cn1c(=O)sc2cc(N)c(Cl)cc21` stands 154 to 160 °C; under `CC(C)(C)OC(=O)Cn1c(=O)c(=O)[nH]c2cc(Cl)c(Cl)cc21`, above 300 °C. On to `CN1CC(Cc2ccccc2)OC1=O` (centres undefined), for which the melting point is 80 to 82 °C. The figure for `CS(=O)(=O)c1ccc(-c2nnc(Oc3ccc(F)cc3F)cc2-c2ccc(Cl)cc2)cc1` is 115 to 117 °C; for `Cc1c(N2CC[C@@H](C3(N)CC3)C2)ccc2c(=O)c(C(=O)O)cn(C3CC3)c12` it is 230 to 233 °C. The figure for `O=C(O)CCCc1cc2nc(Cl)ccc2n1S(=O)(=O)c1c(F)cccc1F` is 192 to 195 °C; for `CCOC(=O)C(=CNc1ncc(OC)c2ccccc12)C(=O)OCC` it is 150 to 153 °C. Under `COc1cccc(C=CCN2CCc3nc(N)sc3CC2)c1OC` stands 87 °C; under `COC(=O)C(=CN(C)C)N(C)c1cc(-c2cccc(OC)c2)ncn1`, 172 to 174 °C; under `Cn1cc(C(=O)NCc2ccc(Cl)cc2)c(=O)c2cc(CN3CCOCC3)cc(I)c21`, 156 to 158 °C. `C=C(C)Cn1c(=O)n(C)c(=O)c2c(SCCO)n(Cc3cccc4ccccc34)nc21`: the melting point lay within 135 to 137 °C. Under `CC(C)C(=O)N(C)C1CN(C(=O)Nc2ccc(C(F)(F)F)cc2)N=C1c1ccc(Cl)cc1` (centres undefined) stands 180 to 182 °C; under `CCCCNC(=O)Oc1ccccc1`, 39 to 40 °C; under `NCCc1ccc(OCCC(c2ccc(Cl)cc2)(c2ccc(Cl)cc2)c2ccc(Cl)cc2)cc1`, 132 to 135 °C.

On to `CC1(C)Cc2cccc(OCCCBr)c2O1`, for which the melting point fell in the range of 54 to 56 °C. The figure for `Nc1ccc(-c2n[nH]c(-c3ccncc3)n2)cc1` is 251 to 252 °C. Under `COC(=O)c1cc(N=NN(C)C)cs1` stands 90 to 92 °C; under `CO[C@H]1CCN(C(=O)c2cc(-c3ccccc3)c(=O)n3c2-c2sccc2C3)C1`, 159 to 162 °C; under `FC(F)(F)c1cccc(-c2cnn(-c3cccnc3)c2)n1`, 130 to 131 °C. Under `Clc1ccc(-c2cc3nccc(C4CC4)n3n2)cc1` stands 137 to 138 °C; under `CC(C)C(NC(=O)OCc1ccccc1)C(=O)NC(Cc1ccccc1)C(O)C(Cc1ccccc1)NC(=O)C(NC(=O)N1CCN(C)CC1)C(C)C` (centres undefined), 175 to 176 °C; under `C=C(OCC)c1cc(N)c(OC)c(C(=O)OC)n1`, 72 to 73 °C. `CC(C)(C)OC(=O)NCCOC(=O)COc1ccc(CCCCN(C(=N)N)C(=O)c2nc(Cl)c(N)nc2N)cc1` displayed a melting point of 80 to 82 °C. Under `COc1cc(N)c(Cl)cc1C(=O)NCCC1CN(Cc2ccc(C#N)cc2)CCO1` (centres undefined) stands 180 to 182 °C; under `COC1(c2cc(F)cc(Sc3ccc4c(c3)SCC(=O)N4C)c2)CCOCC1`, 131 to 133 °C. The figure for `Cc1c(NC(=O)CCCCc2ccc(F)cc2)ccc2cc(CN3CCCC3)cnc12` is 137 to 138 °C; for `Cn1c(Cc2ccc(Cl)cc2Cl)nc2cc(C(=O)O)ccc2c1=O` it is 266 to 271 °C. The figure for `COc1ccc(C(=O)Nc2ccccc2C(O)c2ccccn2)cc1` (centres undefined) is 128 °C; for `CC(=O)Nc1cccc(C=Cc2nc3c(c(=O)n(C)c(=O)n3C)n2C)c1` it is above 300 °C. On to `COc1ccc(-c2sc3cnccc3c2OC(C)=O)cc1`, for which the melting point lay in the range of 141 to 142 °C. The figure for `CCOC(=O)C1=C(N)NC2=C(C(=O)CCC2)C1c1cc(OC)c(OC)cc1[N+](=O)[O-]` (centres undefined) is 261 °C; for `CCCn1c(=O)c2nc(-c3ccc(/C=C/C(=O)OCC)cc3)[nH]c2n(CCC)c1=O` it is above 300 °C; for `CC(C)c1ccc(-c2nc(=O)n(Cc3ccccc3)c3ccc(OCC#N)cc23)cc1` it is 139 to 141 °C. Turning to `Cc1ccc2c(c1)/C(=N\NC(=O)NCc1ccccc1)C(=O)N2CCN(C(C)C)C(C)C`, the melting point fell in the range of 159 to 160 °C. The figure for `CCC(CC)C(=O)Nc1nc(C)co1` is 106 °C; for `COc1ccc(C(=O)Nc2ccc(F)c(F)c2)cc1NS(=O)(=O)c1cc(Cl)cc(Cl)c1` it is 228 to 231 °C.

Compound `C=C(C)C1CCC2C3CC(=O)C4=CC(=O)CCC4(C)C3CCC12C` (centres undefined) came in with a melting point of 148 to 150 °C. The figure for `CC(=O)Cc1ccccc1Br` is 60 to 65 °C; for `NC(=O)CNc1ncccc1NC(=O)c1cccc(Cl)c1` it is 210 to 211 °C; for `O=C(Nc1cccc(S(=O)(=O)NCC(F)(F)F)c1)c1cnn2c(C(F)(F)F)cc(-c3ccc(C(F)(F)F)cc3)nc12` it is 259 °C. Under `CC(C)(C)CCP1C(O)C(O)P(CCC(C)(C)C)C(O)C1O` (centres undefined) stands 186 to 210 °C. The figure for `C#Cc1cc(C(=O)NC(C)CCCc2cccnc2)ccc1-c1ccc(OC)c(OC)c1` (centres undefined) is 135 to 137 °C; for `Cc1cc(-n2ccnc2)c2cccc(OCc3c(Cl)ccc(S(=O)(=O)N4CCC[C@H]4C(=O)NCCCNC(=O)c4ccc(C#N)cc4)c3Cl)c2n1` it is 118 °C. `CCC(CC)CNC(=O)c1cccc(CN2C(=O)C3(COc4cc5c(cc43)CCO5)c3ccccc32)c1` (centres undefined) yielded a melting point of 105 to 106 °C. Under `N=C(N)NOc1nccc2ccccc12` stands 162 to 164 °C. Compound `N#Cc1c(N)nc2ccc(N3CCOCC3)cc2c1O` showed a melting point of 291 °C. In turn, `CNC(=O)C1CCc2c(C(=O)c3ccccc3)cccc21` (centres undefined) showed a melting point of 145 to 146 °C. The figure for `COc1cc(C=O)ccc1OCc1nc(N2CCOCC2)sc1C` is 127 to 128 °C; for `COc1cccc(C=C2NC(=O)NC2=O)c1` it is 229 to 231 °C. Under `COc1nsc(OCCC#CI)c1C#N` stands 71 to 73 °C. Under `CCCCCCCCOc1ccc(-c2ncc(Br)cn2)cc1` stands 95 °C.

The term melting point denotes the temperature of the solid-liquid transition.
